One experiment addresses B-Raf (Homo sapiens, UniProt P15056). The experiment in a line: Kinase activity assay, B-Raf. The experiment is classed as biochemical. The conditions noted are these: read-out: activity toward kinase B-Raf, IC50.
The target in the next experiment is B-Raf V600E (Homo sapiens, UniProt P15056, V600E). The experiment in a line: Kinase activity assay, B-Raf V600E. Format: biochemical. The following applies: read-out: activity toward kinase B-Raf V600E, IC50.
The target of the next experiment is Kdr (Homo sapiens, UniProt P35968). The experiment in a line: Kinase activity assay, Kdr.
The target of a further experiment is C-Raf (Homo sapiens, UniProt P04049). The experiment in a line: Kinase activity assay, C-Raf.
Chain of C-Raf (P04049 whole entry): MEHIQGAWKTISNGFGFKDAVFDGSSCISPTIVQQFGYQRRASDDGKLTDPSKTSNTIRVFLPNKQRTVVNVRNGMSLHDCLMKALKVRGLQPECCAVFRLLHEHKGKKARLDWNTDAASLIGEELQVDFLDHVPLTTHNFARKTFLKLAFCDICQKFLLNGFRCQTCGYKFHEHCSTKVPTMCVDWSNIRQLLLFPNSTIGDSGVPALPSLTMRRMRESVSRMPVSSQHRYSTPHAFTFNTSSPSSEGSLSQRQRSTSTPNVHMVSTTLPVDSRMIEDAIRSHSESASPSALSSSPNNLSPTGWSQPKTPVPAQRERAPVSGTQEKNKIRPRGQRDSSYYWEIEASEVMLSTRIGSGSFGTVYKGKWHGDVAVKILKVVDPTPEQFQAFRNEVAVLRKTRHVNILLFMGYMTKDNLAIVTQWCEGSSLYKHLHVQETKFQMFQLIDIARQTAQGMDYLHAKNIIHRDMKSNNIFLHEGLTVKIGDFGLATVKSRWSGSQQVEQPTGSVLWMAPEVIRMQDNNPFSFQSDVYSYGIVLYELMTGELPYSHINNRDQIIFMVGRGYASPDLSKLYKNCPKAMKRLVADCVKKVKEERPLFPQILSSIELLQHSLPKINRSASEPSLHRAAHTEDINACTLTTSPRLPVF

Chain of B-Raf V600E (P15056 whole entry V600E): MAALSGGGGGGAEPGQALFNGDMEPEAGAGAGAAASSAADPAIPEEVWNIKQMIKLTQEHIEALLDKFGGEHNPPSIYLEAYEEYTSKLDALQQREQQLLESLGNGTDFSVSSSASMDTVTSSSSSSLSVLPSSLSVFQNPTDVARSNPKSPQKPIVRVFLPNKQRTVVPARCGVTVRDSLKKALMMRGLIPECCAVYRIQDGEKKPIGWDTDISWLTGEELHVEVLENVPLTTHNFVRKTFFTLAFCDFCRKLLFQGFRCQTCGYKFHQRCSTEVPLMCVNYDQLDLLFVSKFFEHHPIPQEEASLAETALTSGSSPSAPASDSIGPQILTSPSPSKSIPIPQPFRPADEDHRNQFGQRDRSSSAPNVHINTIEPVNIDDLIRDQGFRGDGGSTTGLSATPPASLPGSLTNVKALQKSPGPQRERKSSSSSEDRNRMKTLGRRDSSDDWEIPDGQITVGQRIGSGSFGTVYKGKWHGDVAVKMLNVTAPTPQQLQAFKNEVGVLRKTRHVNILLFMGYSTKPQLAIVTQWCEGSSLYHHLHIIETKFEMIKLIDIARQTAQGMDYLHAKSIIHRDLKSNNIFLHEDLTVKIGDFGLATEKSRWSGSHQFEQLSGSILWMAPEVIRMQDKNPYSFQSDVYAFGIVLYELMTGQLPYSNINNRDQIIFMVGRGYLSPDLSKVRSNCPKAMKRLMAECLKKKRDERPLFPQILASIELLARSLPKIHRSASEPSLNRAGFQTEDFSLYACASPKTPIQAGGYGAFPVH
Chain of Kdr (P35968 20-1356): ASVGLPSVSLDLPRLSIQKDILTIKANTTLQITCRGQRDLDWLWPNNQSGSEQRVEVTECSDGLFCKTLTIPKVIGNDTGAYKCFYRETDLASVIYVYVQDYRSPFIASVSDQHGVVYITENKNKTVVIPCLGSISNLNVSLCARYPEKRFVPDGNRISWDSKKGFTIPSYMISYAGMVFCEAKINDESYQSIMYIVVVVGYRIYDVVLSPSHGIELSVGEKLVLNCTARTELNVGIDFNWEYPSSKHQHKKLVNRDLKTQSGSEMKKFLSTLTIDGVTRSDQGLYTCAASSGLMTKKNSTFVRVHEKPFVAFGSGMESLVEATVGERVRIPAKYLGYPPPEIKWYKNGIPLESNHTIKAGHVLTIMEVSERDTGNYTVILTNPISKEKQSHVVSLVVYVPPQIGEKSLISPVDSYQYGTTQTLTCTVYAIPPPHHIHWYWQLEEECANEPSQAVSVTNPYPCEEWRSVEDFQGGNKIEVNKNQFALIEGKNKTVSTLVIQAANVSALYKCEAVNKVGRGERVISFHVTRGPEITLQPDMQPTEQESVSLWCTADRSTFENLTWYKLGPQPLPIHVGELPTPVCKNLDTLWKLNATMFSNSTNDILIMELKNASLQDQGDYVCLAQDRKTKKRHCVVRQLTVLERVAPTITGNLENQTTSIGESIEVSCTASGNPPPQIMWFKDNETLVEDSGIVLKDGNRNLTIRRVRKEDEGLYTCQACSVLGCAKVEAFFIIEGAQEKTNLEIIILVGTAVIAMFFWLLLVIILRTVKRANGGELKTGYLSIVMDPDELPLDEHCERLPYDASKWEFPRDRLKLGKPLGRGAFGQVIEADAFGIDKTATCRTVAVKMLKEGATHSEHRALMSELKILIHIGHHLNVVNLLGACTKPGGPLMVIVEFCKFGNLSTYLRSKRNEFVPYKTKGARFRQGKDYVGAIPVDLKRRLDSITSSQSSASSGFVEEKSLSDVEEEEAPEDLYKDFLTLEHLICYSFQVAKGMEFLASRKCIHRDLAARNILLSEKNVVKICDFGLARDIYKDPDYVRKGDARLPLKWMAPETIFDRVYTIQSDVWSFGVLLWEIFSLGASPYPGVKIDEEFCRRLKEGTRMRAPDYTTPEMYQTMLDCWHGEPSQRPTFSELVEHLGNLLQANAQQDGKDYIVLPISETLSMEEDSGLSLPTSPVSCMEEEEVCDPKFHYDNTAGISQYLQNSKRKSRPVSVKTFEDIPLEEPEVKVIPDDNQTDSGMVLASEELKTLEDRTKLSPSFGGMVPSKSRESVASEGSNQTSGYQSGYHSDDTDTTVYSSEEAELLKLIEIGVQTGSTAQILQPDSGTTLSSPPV
Chain of B-Raf (P15056 whole entry): as the sequence (P15056 whole entry V600E) above, with E600V counted along it

Take `CCCS(=O)(=O)Nc1cccc(C(=O)c2c[nH]c3ncc(C)cc23)c1F` [P-2403, Propane-1-sulfonic acid [2-fluoro-3-(5-methyl-1H-pyrrolo[2,3-b]pyridine-3-carbonyl)-phenyl]-amide]: the IC50 at B-Raf, on B-Raf V600E, on Kdr and against C-Raf was not above 10 µM each time.
In the case of `N#Cc1cnc2[nH]cc(C(=O)c3cccc(NS(=O)(=O)CCC(F)(F)F)c3F)c2c1` [P-2415, 3,3,3-Trifluoro-propane-1-sulfonic acid [3-(5-cyano-1H-pyrrolo[2,3-b]pyridine-3-carbonyl)-2-fluoro-phenyl]-amide], the IC50 at B-Raf, at B-Raf V600E and at C-Raf was not above 10 µM each time.
With `N#Cc1cnc2[nH]cc(C(=O)c3c(F)ccc(NS(=O)(=O)c4ccc(F)cc4)c3F)c2c1` [P-2028, N-[3-(5-Cyano-1H-pyrrolo[2,3-b]pyridine-3-carbonyl)-2,4-difluoro-phenyl]-4-fluoro-benzenesulfonamide], the 50% inhibitory concentration (IC50) on B-Raf, at B-Raf V600E and against C-Raf was not above 10 µM in each case.
For the molecule `COc1ccc(S(=O)(=O)Nc2cccc(C(=O)c3c[nH]c4ncc(C#N)cc34)c2F)cn1` [P-2092, 6-Methoxy-pyridine-3-sulfonic acid [3-(5-cyano-1H-pyrrolo[2,3-b]pyridine-3-carbonyl)-2-fluoro-phenyl]-amide], the IC50 on B-Raf V600E and at C-Raf was not above 10 µM in each case.
`CCS(=O)(=O)Nc1ccc(F)c(C(=O)c2c[nH]c3ncc(C#N)cc23)c1F` [P-2281, Ethanesulfonic acid [3-(5-cyano-1H-pyrrolo[2,3-b]pyridine-3-carbonyl)-2,4-difluoro-phenyl]-amide]: the IC50 on B-Raf, at B-Raf V600E, against Kdr and against C-Raf was not above 10 µM each time.
Take `CC(C)S(=O)(=O)Nc1cccc(C(=O)c2c[nH]c3ncc(C#N)cc23)c1F` [P-2411, Propane-2-sulfonic acid [3-(5-cyano-1H-pyrrolo[2,3-b]pyridine-3-carbonyl)-2-fluoro-phenyl]-amide]: the IC50 at B-Raf V600E and against C-Raf was not above 10 µM in each case.
Regarding `Cc1oncc1S(=O)(=O)Nc1ccc(F)c(C(=O)c2c[nH]c3ncc(C#N)cc23)c1F` [P-2081, 5-Methyl-isoxazole-4-sulfonic acid [3-(5-cyano-1H-pyrrolo[2,3-b]pyridine-3-carbonyl)-2,4-difluoro-phenyl]-amide], the IC50 at B-Raf V600E, against Kdr and against C-Raf was not above 10 µM each time.
With `N#Cc1cnc2[nH]cc(C(=O)c3cccc(NS(=O)(=O)C4CCC4)c3F)c2c1` [P-2418, Cyclobutanesulfonic acid [3-(5-cyano-1H-pyrrolo[2,3-b]pyridine-3-carbonyl)-2-fluoro-phenyl]-amide], the 50% inhibitory concentration (IC50) on B-Raf, on B-Raf V600E and on C-Raf was not above 10 µM each time.
Consider `N#Cc1cnc2[nH]cc(C(=O)c3cccc(NS(=O)(=O)C4CCCCC4)c3F)c2c1` [P-2416, Cyclohexanesulfonic acid [3-(5-cyano-1H-pyrrolo[2,3-b]pyridine-3-carbonyl)-2-fluoro-phenyl]-amide], for which the IC50 on B-Raf, at B-Raf V600E and at C-Raf was not above 10 µM in each case.
Turning to `N#Cc1cnc2[nH]cc(C(=O)c3cccc(NS(=O)(=O)c4ccc(F)cc4)c3F)c2c1` [P-2050, N-[3-(5-Cyano-1H-pyrrolo[2,3-b]pyridine-3-carbonyl)-2-fluoro-phenyl]-4-fluoro-benzenesulfonamide], the IC50 at B-Raf, on B-Raf V600E and against C-Raf was not above 10 µM in each case.
On to `O=C(c1c(F)ccc(NS(=O)(=O)c2ccc(C(F)(F)F)cc2)c1F)c1c[nH]c2ncc(C3CC3)cc12` [P-2483, N-[3-(5-Cyclopropyl-1H-pyrrolo[2,3-b]pyridine-3-carbonyl)-2,4-difluoro-phenyl]-4-trifluoromethyl-benzenesulfonamide], for which the IC50 at Kdr and at C-Raf was not above 10 µM throughout.
Turning to `CCn1cc(S(=O)(=O)Nc2cccc(C(=O)c3c[nH]c4ncc(C#N)cc34)c2F)cn1` [P-2089, 1-Ethyl-1H-pyrazole-4-sulfonic acid [3-(5-cyano-1H-pyrrolo[2,3-b]pyridine-3-carbonyl)-2-fluoro-phenyl]-amide], the half-inhibitory concentration (IC50) on B-Raf V600E, on Kdr and on C-Raf was not above 10 µM throughout.
As for `CCCS(=O)(=O)Nc1ccc(F)c(C(=O)c2c[nH]c3ncc(-c4cnc(SC)nc4)cc23)c1F` [P-2189, Propane-1-sulfonic acid {2,4-difluoro-3-[5-(2-methylsulfanyl-pyrimidin-5-yl)-1H-pyrrolo[2,3-b]pyridine-3-carbonyl]-phenyl}-amide], the IC50 on B-Raf, at B-Raf V600E and on Kdr was not above 10 µM throughout.
Turning to `Cn1cc(S(=O)(=O)Nc2cccc(C(=O)c3c[nH]c4ncc(C#N)cc34)c2F)cn1` [P-2090, 1-Methyl-1H-pyrazole-4-sulfonic acid [3-(5-cyano-1H-pyrrolo[2,3-b]pyridine-3-carbonyl)-2-fluoro-phenyl]-amide], the IC50 at B-Raf, at B-Raf V600E and at C-Raf was not above 10 µM each time.
As to `COc1ccc(S(=O)(=O)Nc2ccc(F)c(C(=O)c3c[nH]c4ncc(C#N)cc34)c2F)cn1` [P-2085, 6-Methoxy-pyridine-3-sulfonic acid [3-(5-cyano-1H-pyrrolo[2,3-b]pyridine-3-carbonyl)-2,4-difluoro-phenyl]-amide], the IC50 on B-Raf, at B-Raf V600E and against C-Raf was not above 10 µM throughout.
`CCCS(=O)(=O)Nc1cccc(C(=O)c2c[nH]c3nccc(C#N)c23)c1F` [P-2409, Propane-1-sulfonic acid [3-(4-cyano-1H-pyrrolo[2,3-b]pyridine-3-carbonyl)-2-fluoro-phenyl]-amide]: the IC50 at B-Raf, on B-Raf V600E, on Kdr and against C-Raf was not above 10 µM each time.
As to `CS(=O)(=O)Nc1ccc(F)c(C(=O)c2c[nH]c3ncc(C#N)cc23)c1F` [P-2294, N-[3-(5-Cyano-1H-pyrrolo[2,3-b]pyridine-3-carbonyl)-2,4-difluoro-phenyl]-methanesulfonamide], the half-inhibitory concentration (IC50) on B-Raf V600E, against Kdr and on C-Raf was not above 10 µM in each case.
Regarding `CC(C)CS(=O)(=O)Nc1cccc(C(=O)c2c[nH]c3ncc(C#N)cc23)c1F` [P-2412, 2-Methyl-propane-1-sulfonic acid [3-(5-cyano-1H-pyrrolo[2,3-b]pyridine-3-carbonyl)-2-fluoro-phenyl]-amide], the IC50 at B-Raf, on B-Raf V600E and against C-Raf was not above 10 µM throughout.
As for `COc1ccnc2[nH]cc(C(=O)c3c(F)ccc(NS(=O)(=O)c4ncn[nH]4)c3F)c12` [P-2068, 2H-[1,2,4]Triazole-3-sulfonic acid [2,4-difluoro-3-(4-methoxy-1H-pyrrolo[2,3-b]pyridine-3-carbonyl)-phenyl]-amide], the IC50 at B-Raf V600E and at C-Raf was not above 10 µM in each case.
`COc1ncc(-c2cnc3[nH]cc(C(=O)c4cccc(NS(=O)(=O)N(C)C)c4F)c3c2)cn1` [P-2424, N,N-dimethylamino-sulfonic acid {2-fluoro-3-[5-(2-methoxy-pyrimidin-5-yl)-1H-pyrrolo[2,3-b]pyridine-3-carbonyl]-phenyl}-amide]: the IC50 on B-Raf V600E, at Kdr and against C-Raf was not above 10 µM each time.
As to `Cn1cc(S(=O)(=O)Nc2ccc(F)c(C(=O)c3c[nH]c4ncc(C#N)cc34)c2F)cn1` [P-2084, 1-Methyl-1H-pyrazole-4-sulfonic acid [3-(5-cyano-1H-pyrrolo[2,3-b]pyridine-3-carbonyl)-2,4-difluoro-phenyl]-amide], the concentration for half-maximal inhibition (IC50) on B-Raf, at B-Raf V600E and on C-Raf was not above 10 µM in each case.
Regarding `CCCS(=O)(=O)Nc1ccc(F)c(C(=O)c2c[nH]c3ncc(-c4cnc(N5CCOCC5)nc4)cc23)c1F` [P-2197, Propane-1-sulfonic acid {2,4-difluoro-3-[5-(2-morpholin-4-yl-pyrimidin-5-yl)-1H-pyrrolo[2,3-b]pyridine-3-carbonyl]-phenyl}-amide], the IC50 on B-Raf, on B-Raf V600E and against Kdr was not above 10 µM in each case.
Turning to `COc1ncc(-c2cnc3[nH]cc(C(=O)c4cccc(NS(=O)(=O)N5CCCC5)c4F)c3c2)cn1` [P-2422, Pyrrolidine-1-sulfonic acid {2-fluoro-3-[5-(2-methoxy-pyrimidin-5-yl)-1H-pyrrolo[2,3-b]pyridine-3-carbonyl]-phenyl}-amide], the half-maximal inhibitory concentration (IC50) at B-Raf, on B-Raf V600E, at Kdr and on C-Raf was not above 10 µM in each case.
On to `CCn1cc(S(=O)(=O)Nc2ccc(F)c(C(=O)c3c[nH]c4ncc(C#N)cc34)c2F)cn1` [P-2083, 1-Ethyl-1H-pyrazole-4-sulfonic acid [3-(5-cyano-1H-pyrrolo[2,3-b]pyridine-3-carbonyl)-2,4-difluoro-phenyl]-amide], for which the half-inhibitory concentration (IC50) at B-Raf V600E and on C-Raf was not above 10 µM in each case.
As to `N#Cc1cnc2[nH]cc(C(=O)c3cccc(NS(=O)(=O)N4CCOCC4)c3F)c2c1` [P-2421, Morpholine-4-sulfonic acid [3-(5-cyano-1H-pyrrolo[2,3-b]pyridine-3-carbonyl)-2-fluoro-phenyl]-amide], the IC50 at B-Raf V600E and against C-Raf was not above 10 µM in each case.
Consider `CCC(C)S(=O)(=O)Nc1cccc(C(=O)c2c[nH]c3ncc(C#N)cc23)c1F` (stereo not shown) [P-2413, Butane-2-sulfonic acid [3-(5-cyano-1H-pyrrolo[2,3-b]pyridine-3-carbonyl)-2-fluoro-phenyl]-amide], for which the 50% inhibitory concentration (IC50) at B-Raf, at B-Raf V600E and against C-Raf was not above 10 µM each time.

Broadly, the IC50 is the concentration that gives 50% inhibition.

The values are drawn from patent US20120122860A1, “SOLID FORMS OF SULFONAMIDES AND AMINO ACIDS” (Plexxikon, Inc., priority 2009, published 2012).
